{
  "source": "ChEMBL document CHEMBL1201862",
  "about": "“PubChem BioAssay data set” (2004)",
  "key": {"HeLa": {"tested_on": "HeLa", "experiment": "viability loss in HeLa cells – cell-based, ATP luminescence, cherry-pick samples, cytotoxicity control, dose response (AID 687004)", "format": "functional", "settings": "Homo sapiens"}, "Albumin": {"target": "Albumin (Bos taurus, UniProt P02769)", "sequence (P02769 whole entry)": "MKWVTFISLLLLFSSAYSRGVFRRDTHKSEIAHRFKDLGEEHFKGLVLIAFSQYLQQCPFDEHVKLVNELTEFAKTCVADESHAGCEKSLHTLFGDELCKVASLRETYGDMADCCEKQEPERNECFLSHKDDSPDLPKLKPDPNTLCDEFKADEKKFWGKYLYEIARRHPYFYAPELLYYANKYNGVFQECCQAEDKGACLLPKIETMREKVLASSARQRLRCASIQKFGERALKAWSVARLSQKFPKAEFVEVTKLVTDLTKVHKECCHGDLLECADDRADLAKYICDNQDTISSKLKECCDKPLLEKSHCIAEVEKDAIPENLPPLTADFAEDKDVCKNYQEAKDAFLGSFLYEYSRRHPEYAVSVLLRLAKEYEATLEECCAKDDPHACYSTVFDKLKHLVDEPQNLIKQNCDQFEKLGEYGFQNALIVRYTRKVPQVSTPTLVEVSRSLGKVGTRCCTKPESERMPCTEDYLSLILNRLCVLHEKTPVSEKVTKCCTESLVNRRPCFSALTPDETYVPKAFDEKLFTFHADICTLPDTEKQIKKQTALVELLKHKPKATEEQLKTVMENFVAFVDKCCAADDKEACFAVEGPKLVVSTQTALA", "experiment": "Counterscreen for inhibitors of T-cell receptor (TCR)-CD3 interaction: Fluorescence-based biochemical high throughput dose response assay to identify inhibitors of T-cell receptor (TCR)-CD3 interaction using a TAMRA-labeled BSA probe.", "format": "functional"}, "[1]": {"experiment": "MITF Orthogonal Assay: SK-MEL-5 CTG Assay Measured in Cell-Based System Using Plate Reader - 2084-02_Inhibitor_Dose_DryPowder_Activity_Set7.", "format": "functional"}, "[2]": {"experiment": "MITF: Counter assay: A375 proliferation Measured in Cell-Based System Using Plate Reader - 2084-03_Inhibitor_Dose_DryPowder_Activity_Set8.", "format": "functional", "settings": "A-375"}, "[3]": {"target": "T1, Oxysterols receptor LXR-beta (Homo sapiens, UniProt P55055)", "T1 sequence (P55055 whole entry)": "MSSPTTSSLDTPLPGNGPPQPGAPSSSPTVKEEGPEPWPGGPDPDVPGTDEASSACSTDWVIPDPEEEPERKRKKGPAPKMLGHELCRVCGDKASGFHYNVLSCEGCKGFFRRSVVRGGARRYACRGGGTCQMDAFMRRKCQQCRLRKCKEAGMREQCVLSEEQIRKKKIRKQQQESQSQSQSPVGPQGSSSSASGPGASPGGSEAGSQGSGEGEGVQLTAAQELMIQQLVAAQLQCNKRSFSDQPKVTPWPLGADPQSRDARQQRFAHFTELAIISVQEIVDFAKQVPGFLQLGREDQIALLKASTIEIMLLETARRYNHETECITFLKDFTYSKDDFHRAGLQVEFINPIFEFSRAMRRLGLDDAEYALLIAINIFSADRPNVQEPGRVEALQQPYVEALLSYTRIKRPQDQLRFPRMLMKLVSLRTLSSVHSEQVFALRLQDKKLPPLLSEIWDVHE", "format": "functional, cell-based"}, "[4]": {"experiment": "viability loss in mouse NIH3T3 cells – cell-based, CellTiter-Glo luminescence, dry powder, cytotoxicity control for PglD inhibitor project, dose response (AID 652044)", "format": "functional"}, "cells": {"experiment": "cells", "format": "functional, cell-based"}, "[5]": {"target": "T2, Nuclear receptor subfamily 0 group B member 1 (Homo sapiens, UniProt P51843)", "T2 sequence (P51843 whole entry)": "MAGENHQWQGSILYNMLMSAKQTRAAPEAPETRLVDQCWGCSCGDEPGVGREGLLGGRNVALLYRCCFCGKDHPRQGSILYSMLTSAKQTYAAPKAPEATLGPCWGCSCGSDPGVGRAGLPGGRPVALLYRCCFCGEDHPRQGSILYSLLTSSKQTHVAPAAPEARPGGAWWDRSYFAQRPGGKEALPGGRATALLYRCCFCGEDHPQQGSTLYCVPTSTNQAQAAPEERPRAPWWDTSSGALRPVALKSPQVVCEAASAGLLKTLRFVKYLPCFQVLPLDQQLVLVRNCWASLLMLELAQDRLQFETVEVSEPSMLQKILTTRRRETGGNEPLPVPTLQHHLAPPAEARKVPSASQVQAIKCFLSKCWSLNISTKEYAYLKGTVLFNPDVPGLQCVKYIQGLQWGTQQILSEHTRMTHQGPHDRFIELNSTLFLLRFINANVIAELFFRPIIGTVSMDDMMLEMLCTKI", "format": "functional, cell-based"}, "Paired box protein Pax-8": {"target": "Paired box protein Pax-8 (Homo sapiens, UniProt Q06710)", "sequence (Q06710 whole entry)": "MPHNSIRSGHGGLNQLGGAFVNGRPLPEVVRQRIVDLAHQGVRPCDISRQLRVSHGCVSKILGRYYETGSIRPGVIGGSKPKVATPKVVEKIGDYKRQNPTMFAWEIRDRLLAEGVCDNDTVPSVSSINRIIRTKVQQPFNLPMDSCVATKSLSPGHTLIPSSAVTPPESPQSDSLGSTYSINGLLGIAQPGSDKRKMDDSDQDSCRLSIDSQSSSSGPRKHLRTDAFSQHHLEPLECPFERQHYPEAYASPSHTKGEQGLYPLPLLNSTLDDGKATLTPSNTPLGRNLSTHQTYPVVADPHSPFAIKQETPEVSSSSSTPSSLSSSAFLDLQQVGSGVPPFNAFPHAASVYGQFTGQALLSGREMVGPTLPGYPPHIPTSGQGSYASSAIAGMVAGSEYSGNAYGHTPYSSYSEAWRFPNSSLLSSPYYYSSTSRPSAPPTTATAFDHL", "experiment": "PAX8 transcriptional activity inhibition in RMG-I – RMG-I cells, luciferase, cherry-pick, dose response (AID 687027);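 note: luciferase reporter driven by Pax8 target thyroperoxidase promoter measured by SteadyGlo luminescence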", "format": "functional, cell-based"}, "[6]": {"experiment": "HEK-293T cell viability reduction – luminescence, B-cell screen hits, cytotoxicity control for BCR NF-kB inhibitor project, dose response (AID 489021);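 note: HEK-293T cells carrying an NF-kB luciferase reporter; cells exposed to compound for about 14 hours before viability readout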", "format": "functional, cell-based"}, "[7]": {"target": "T3, Sentrin-specific protease 1 (Homo sapiens, UniProt Q9P0U3)", "T3 sequence (Q9P0U3 whole entry, the tested form may be a part)": "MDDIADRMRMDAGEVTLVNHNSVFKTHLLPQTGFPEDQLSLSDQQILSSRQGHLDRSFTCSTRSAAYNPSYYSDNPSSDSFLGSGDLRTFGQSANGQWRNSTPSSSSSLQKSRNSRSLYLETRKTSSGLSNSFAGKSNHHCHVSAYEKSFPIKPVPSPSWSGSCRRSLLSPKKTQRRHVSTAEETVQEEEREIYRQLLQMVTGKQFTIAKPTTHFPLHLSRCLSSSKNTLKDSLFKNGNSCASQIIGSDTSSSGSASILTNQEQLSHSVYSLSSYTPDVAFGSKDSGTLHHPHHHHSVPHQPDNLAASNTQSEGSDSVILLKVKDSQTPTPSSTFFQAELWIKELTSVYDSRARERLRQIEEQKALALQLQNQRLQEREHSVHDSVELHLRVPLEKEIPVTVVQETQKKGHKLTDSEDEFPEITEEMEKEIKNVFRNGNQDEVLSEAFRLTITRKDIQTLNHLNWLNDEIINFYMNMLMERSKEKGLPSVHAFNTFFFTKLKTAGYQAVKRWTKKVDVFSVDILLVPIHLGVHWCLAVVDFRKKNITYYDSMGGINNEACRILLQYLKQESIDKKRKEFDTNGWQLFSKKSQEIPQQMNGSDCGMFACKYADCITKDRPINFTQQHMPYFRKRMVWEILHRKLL", "experiment": "SENP1 catalytic domain blockers, concentration series – biochemical, kinetic FRET, dose response (AID 651697)", "format": "functional", "settings": "read-out: IC50_Mean"}, "[8]": {"target": "T3, Sentrin-specific protease 1", "experiment": "Dose response confirmation of small molecule inhibitors of the catalytic domain of the SUMO protease, SENP1 in a FRET assay.", "format": "functional", "settings": "read-out: IC50_Mean"}, "Vero": {"tested_on": "Vero", "experiment": "viability loss in Vero cells – cell-based, plate reader, cherry-pick samples, cytotoxicity control, dose response (AID 687020)", "format": "functional", "settings": "Chlorocebus sabaeus"}},
  "note": "The source made the active and inactive calls.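 Throughout, for EC50: agonist activity at LXR measured by a cell-based luminescence readout across a dose range, run as a counterscreen for daf-12 agonists; HEK293 cells with Gal4-LXR fusion and GAL4-driven luciferase reporter; potency for activation of Gal4-LXR reporter so compounds are agonists.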",
  "data": [
    {"smiles": "N#Cc1ccc(-c2ccc3c(c2)[C@H]2[C@H](CCN2C(=O)Cc2ccccc2)[C@@H](CO)N3)cc1", "values": [
      {"measurement": "AC50", "setting": "HeLa", "result": "28.5 µM (active)"}
    ]},
    {"smiles": "O=C(NNC(=O)c1ccc2ccccc2c1O)c1cccs1", "values": [
      {"measurement": "IC50", "setting": "Albumin", "result": "> 94.1 µM (inactive)"}
    ]},
    {"smiles": "O=C1C=C(NCc2ccccc2)C(=O)c2ccccc21", "values": [
      {"measurement": "AC50", "setting": "[1]", "result": "7.74 µM (active)"},
      {"measurement": "AC50", "setting": "[2]", "result": "> 70 µM (inactive)"}
    ]},
    {"smiles": "O=C(Nc1ccc(Cl)cn1)c1cc2ccccc2o1", "values": [
      {"measurement": "EC50", "setting": "[3]", "result": "> 67.5 µM (inactive)"}
    ]},
    {"smiles": "CC(C)NC(=O)N(C)C[C@@H]1Oc2ccc(NC(=O)Cc3cn(C)c4ccccc34)cc2C(=O)N([C@H](C)CO)C[C@H]1C", "values": [
      {"measurement": "AC50", "setting": "[4]", "result": "> 47 µM (inactive)"}
    ]},
    {"smiles": "COc1cc(-c2cnc3c(NC=O)cc(-c4ccc(C)cc4)cn23)cc(OC)c1OC", "values": [
      {"measurement": "IC50", "setting": "cells", "result": "> 67.5 µM (inactive)"},
      {"measurement": "IC50", "setting": "[5]", "result": "> 0.834 µM (active)"},
      {"measurement": "AC50", "setting": "Paired box protein Pax-8", "result": "< 0.26 µM (active)"}
    ]},
    {"smiles": "N#CC1=C(N)Oc2cc(Nc3ccccc3)ccc2C1c1ccncc1", "note": "(stereo not drawn)", "values": [
      {"measurement": "IC50", "setting": "[6]", "result": "48.3 µM (inactive)"},
      {"measurement": "IC50", "setting": "[7]", "result": "41.9 µM (inactive)"},
      {"measurement": "IC50", "setting": "[8]", "result": "30.5 µM (inactive)"}
    ]},
    {"smiles": "CCOC(=O)[C@@H]1[C@H]2COc3ccc(Br)cc3[C@@H]2N2C(=O)N(c3ccc(C)cc3)C(=O)[C@]12C", "values": [
      {"measurement": "AC50", "setting": "Vero", "result": "35.3 µM (active)"}
    ]}
  ]
}
